In PMC9224473 (International Journal of Molecular Sciences, 2022):
Converted amounts (≈) assume the structure as drawn. Where two headings read alike, the source gives them in different places.

How the values were obtained:
E. coli 520 = experiment: MIC, broth microdilution, clinical strain; assay type: cell-based, Escherichia coli; details: 35 °C
[1] = tested on: SW620 (human metastatic colon cancer); experiment: MTT cytotoxicity assay; assay type: cell-based; details: mean SD
Description: (§1) The human cell lines SW480 (primary colon cancer), SW620 (lymph node metastatic colon cancer from the same patient as primary cancer cells), HCT116 (colon carcinoma), HepG2 (liver cancer), and HaCaT (immortalized keratinocytes) were obtained from the American Type Culture Collection (ATCC, Rockville, MD, USA). The SW480, SW620 and HCT116 cells were grown in MEM (ThermoSci, Waltham, MA, USA), HepG2 and HaCaT in DMEM High Glucose (Biowest SAS, Nuaillé, France) supplemented with 10% foetal bovine serum (FBS), HEPES (20 mM), and antibiotics (100 U mL^−1 of Penicillin and 100 μg mL^−1 of Streptomycin). The cells were incubated in a humidified incubator at 37 °C/5% CO2, until 80–90% confluence was reached.
The cell viability was assessed by using of MTT salt [3-(4,5-dimethylthiazol-2-yl)-2,5-diphenyltetrazolium bromide] converted by mitochondrial dehydrogenase, occurring in living cells. […] The untreated cells were used as the control.
(§2) Subsequently, the medium was removed and dimethyl sulfoxide (DMSO) with isopropanol (1:1) was added to dissolve the formazan crystals. The optical density was measured using UVM 340 reader (ASYS Hitech GmbH, Eugendorf, Austria) at a wavelength of 570 nm. The experiments were repeated three times. The cell viability was calculated as the percent of MTT reduced in treated cells versus control cells (untreated cells). The number of viable cells cultured without tested compounds was assumed as 100%. A decreased relative MTT level indicates decreased cell viability. The IC50 values were estimated using CompuSyn version 1.0.

S. pasteuri KR 4358 = experiment: MIC, broth microdilution, clinical strain; assay type: cell-based, Staphylococcus pasteuri; details: 35 °C
[2] = tested on: S. epidermidis ATCC 35984; experiment: MIC, broth microdilution, standard strain; assay type: cell-based, Staphylococcus epidermidis; details: 35 °C
E. coli 510 = experiment: MIC, broth microdilution, clinical strain; assay type: cell-based, Escherichia coli; details: 35 °C
S. aureus NCTC 4163 = experiment: MIC, broth microdilution, standard strain; assay type: cell-based, Staphylococcus aureus; details: 35 °C
[3] = tested on: HepG2 (human liver cancer); experiment: MTT cytotoxicity assay; assay type: cell-based; details: mean SD
Description: as §1
(§3) The cell viability was assessed by using of MTT salt [3-(4,5-dimethylthiazol-2-yl)-2,5-diphenyltetrazolium bromide] converted by mitochondrial dehydrogenase, occurring in living cells. The cells were seeded in 96-well plates at a density of 1 × 10^4 cells per well and allowed to adhere for 24 h at 37 °C in a CO2 humidified incubator. […]. The untreated cells were used as the control.
as §2, with “After 72 h incubation, the medium was replaced with 200 µL per well of free-serum medium containing 0.5 mg mL^−1 MTT and incubated for 4 h at 37 °C in a CO2 humidified incubator. Subsequently,” for “Subsequently,”

[4] = tested on: SW480 (human primary colon cancer); experiment: MTT cytotoxicity assay; assay type: cell-based; details: mean SD
Description: as §1, §3
as §2, with “After 72 h incubation, the medium was replaced with 200 µL per well of free-serum medium containing 0.5 mg mL^−1 MTT and incubated for 4 h at 37 °C in a CO2 humidified incubator. Subsequently,” for “Subsequently,”

[5] = tested on: HaCaT (human immortal keratinocyte cell line); experiment: MTT cytotoxicity assay; assay type: cell-based; details: 72 h, mean SD, read-out: IC50 HaCaT (normal cells)
Description: as §1, §3
as §2, with “After 72 h incubation, the medium was replaced with 200 µL per well of free-serum medium containing 0.5 mg mL^−1 MTT and incubated for 4 h at 37 °C in a CO2 humidified incubator. Subsequently,” for “Subsequently,”

[6] = tested on: HCT116 (human colon cancer); experiment: MTT cytotoxicity assay; assay type: cell-based; details: mean SD
Description: as §1, §3
as §2, with “After 72 h incubation, the medium was replaced with 200 µL per well of free-serum medium containing 0.5 mg mL^−1 MTT and incubated for 4 h at 37 °C in a CO2 humidified incubator. Subsequently,” for “Subsequently,”

[7] = tested on: S. epidermidis ATCC 12228; experiment: MIC, broth microdilution, standard strain; assay type: cell-based, Staphylococcus epidermidis; details: 35 °C
S. aureus ATCC 29213 = experiment: MIC, broth microdilution, standard strain; assay type: cell-based, Staphylococcus aureus; details: 35 °C
E. coli ATCC 25922 = experiment: MIC, broth microdilution, standard strain; assay type: cell-based, Escherichia coli; details: 35 °C
P. aeruginosa 659 = experiment: MIC, broth microdilution, clinical strain; assay type: cell-based, Pseudomonas aeruginosa
S. aureus ATCC 6538 = experiment: MIC, broth microdilution, standard strain; assay type: cell-based, Staphylococcus aureus; details: 35 °C
S. aureus T 5595 = experiment: MIC, broth microdilution, clinical strain; assay type: cell-based, Staphylococcus aureus; details: 35 °C
S. epidermidis KR 4243 = experiment: MIC, broth microdilution, clinical strain; assay type: cell-based, Staphylococcus epidermidis; details: 35 °C
E. coli 600 = experiment: MIC, broth microdilution, clinical strain; assay type: cell-based, Escherichia coli; details: 35 °C
S. aureus ATCC 25923 = experiment: MIC, broth microdilution, standard strain; assay type: cell-based, Staphylococcus aureus; details: 35 °C
S. aureus T 5591 = experiment: MIC, broth microdilution, clinical strain; assay type: cell-based, Staphylococcus aureus; details: 35 °C
P. aeruginosa ATCC 15442 = experiment: MIC, broth microdilution, standard strain; assay type: cell-based, Pseudomonas aeruginosa; details: 35 °C

Compound: 1-cyclopropyl-6-fluoro-7-{4-[2-(2-isopropyl-5-methylphenoxy)acetyl]piperazin-1-yl}-4-oxo-1,4-dihydroquinoline-3-carboxylic acid [Compound 10]
- MIC E. coli 520 (E. coli 520; 19 h): 64 µg/mL
- IC50 ([1]; 72 h): 59 ± 1.2 µM
- MIC S. pasteuri KR 4358 (S. pasteuri KR 4358; 19 h): 16 µg/mL
- MIC S. epidermidis ATCC 35984 ([2]; 19 h): 8 µg/mL
- MIC E. coli 510 (E. coli 510; 19 h): >256 µg/mL
- MIC S. aureus NCTC 4163 (S. aureus NCTC 4163; 19 h): 4 µg/mL
- IC50 ([3]; 72 h): 26.1 ± 0.1 µM
- IC50 ([4]; 72 h): 57.2 ± 2.7 µM
- IC50 [5]: 37.1 ± 2.1 µM
- IC50 ([6]; 72 h): > 100 µM
- MIC S. epidermidis ATCC 12228 ([7]; 19 h): 8 µg/mL
- MIC S. aureus ATCC 29213 (S. aureus ATCC 29213; 19 h): 4 µg/mL
- MIC E. coli ATCC 25922 (E. coli ATCC 25922; 19 h): 32 µg/mL
- MIC P. aeruginosa 659 (P. aeruginosa 659; 19 h, 35 °C): 256 µg/mL
- MIC S. aureus ATCC 6538 (S. aureus ATCC 6538; 19 h): 4 µg/mL
- MIC S. aureus T 5595 (S. aureus T 5595; 19 h): 8 µg/mL
- MIC S. epidermidis KR 4243 (S. epidermidis KR 4243; 19 h): 16 µg/mL
- MIC E. coli 600 (E. coli 600; 19 h): 64 µg/mL
- MIC S. aureus ATCC 25923 (S. aureus ATCC 25923; 19 h): 4 µg/mL
- MIC S. aureus T 5591 (S. aureus T 5591; 19 h): 8 µg/mL
- MIC P. aeruginosa ATCC 15442 (P. aeruginosa ATCC 15442; 19 h): 256 µg/mL

Compound: O=C(O)c1cn(C2CC2)c2cc(N3CCNCC3)c(F)cc2c1=O [Ciprofloxacin, reference compound]
- IC50 ([1]; Homo sapiens, SW-620, 72 h): > 100 µM
- IC50 ([3]; Homo sapiens, HepG2, 72 h): > 100 µM
- IC50 ([4]; Homo sapiens, SW480, 72 h): > 100 µM
- IC50 ([5]; Homo sapiens, HaCaT): > 100 µM
- IC50 ([6]; Homo sapiens, HCT-116, 72 h): > 100 µM

Compound: CC(C)[C@@H]1CC[C@@H](C)C[C@H]1OCC(=O)N1CCN(c2cc3c(cc2F)c(=O)c(C(=O)O)cn3C2CC2)CC1 [Compound 1, 1-cyclopropyl-6-fluoro-7-{4-[2-((1R,2S,5R)-2-isopropyl-5-methylcyclohexyloxy)acetyl]piperazin-1-yl}-4-oxo-1,4-dihydroquinoline-3-carboxylic acid]
- MIC (E. coli 520; Escherichia coli, 520, 19 h): 32 µg/mL (≈ 60.6 µM)
- IC50 ([1]; Homo sapiens, SW-620, 72 h): 28.1 ± 2.1 µM
- MIC (S. pasteuri KR 4358; Staphylococcus pasteuri, KR4358, 19 h): 8 µg/mL (≈ 15.2 µM)
- MIC ([2]; Staphylococcus epidermidis, ATCC35984, 19 h): 2 µg/mL (≈ 3.79 µM)
- MIC (E. coli 510; Escherichia coli, 510, 19 h): > 256 µg/mL
- MIC (S. aureus NCTC 4163; Staphylococcus aureus, NCTC4163, 19 h): 2 µg/mL (≈ 3.79 µM)
- IC50 ([3]; Homo sapiens, HepG2, 72 h): 23.1 ± 0.2 µM
- IC50 ([4]; Homo sapiens, SW480, 72 h): 39.9 ± 4.5 µM
- IC50 ([5]; Homo sapiens, HaCaT): 21.7 ± 0.8 µM
- IC50 ([6]; Homo sapiens, HCT-116, 72 h): 34.9 ± 1.4 µM
- MIC ([7]; Staphylococcus epidermidis, ATCC12228, 19 h): 4 µg/mL (≈ 7.58 µM)
- MIC (S. aureus ATCC 29213; Staphylococcus aureus, ATCC29213, 19 h): 4 µg/mL (≈ 7.58 µM)
- MIC (E. coli ATCC 25922; Escherichia coli, ATCC25922, 19 h): 32 µg/mL (≈ 60.6 µM)
- MIC (P. aeruginosa 659; Pseudomonas aeruginosa, 659, read-out: MIC P. aeruginosa 659, 19 h, 35 °C): > 256 µg/mL
- MIC (S. aureus ATCC 6538; Staphylococcus aureus, ATCC6538, 19 h): 4 µg/mL (≈ 7.58 µM)
- MIC (S. aureus T 5595; Staphylococcus aureus, T5595, 19 h): 8 µg/mL (≈ 15.2 µM)
- MIC (S. epidermidis KR 4243; Staphylococcus epidermidis, KR4243, 19 h): 8 µg/mL (≈ 15.2 µM)
- MIC (E. coli 600; Escherichia coli, 600, 19 h): 32 µg/mL (≈ 60.6 µM)
- MIC (S. aureus ATCC 25923; Staphylococcus aureus, ATCC25923, 19 h): 4 µg/mL (≈ 7.58 µM)
- MIC (S. aureus T 5591; Staphylococcus aureus, T5591, 19 h): 4 µg/mL (≈ 7.58 µM)
- MIC (P. aeruginosa ATCC 15442; Pseudomonas aeruginosa, ATCC15442, 19 h): > 256 µg/mL
